Assay results: US20240279217A1, “Heterocyclic compounds for the treatment of tuberculosis” (TECNIMEDE - SOCIEDADE TÉCNICO-MEDICINAL, SA, priority 2021, published 2024)

Legend:
[1] = Distribution coefficient (Log D) determination, octanol/PBS pH 7.4; type: physicochemical; details: octanol / phosphate buffer saline pH 7.4
Method: In an embodiment, distribution coefficient (Log D) determination assay was carried out. Test compounds were incubated in Eppendorf-type polypropylene microtubes in triplicates: a 5 μL aliquot of a 10 mM DMSO stock of each test compound were added into the previously mutually saturated mixture containing 500 μL of phosphate buffer saline (pH 7.4) and 500 μL of octanol. The solution was allowed to mix in a rotator for 1 hour at 30 rpm. Phase separation was assured by centrifugation. The octanol phase was diluted 100-fold with 40% acetonitrile in water for analysis, and aqueous phase was analysed without dilution. Mebendazole was used as a reference compound. All samples (both phases) were analysed in a Shimadzu VP HPLC system with a reverse phase column, coupled with tandem mass spectrometer API 3000 (PE Sciex). The TurbolonSpray ion source was used in positive ion mode. Acquisition and analysis of the data were performed using Analyst 1.5.2 software. Distribution coefficients of the tested compounds were calculated as the logarithm of the partition ratios (D) in both solvents, according to the equation below.
[formula] • where: So—peak area of the compound in octanol phase • Sp—peak area of the compound in phosphate buffer saline phase

[2] = pKa determination by potentiometric titration; type: physicochemical; details: acidified MeOH-water (1:4) solution of NaCl, 25° C.
Method: In an embodiment, pKa determination assay was carried out. The tendency of a compound to donate a proton is measured as its acid ionization constant (dissociation constant), or Ka. A more practical scale of representing acidity is pKa which is the negative logarithm of the Ka (pKa=−log Ka). The pKa determinations of the test compounds and 3 reference compounds were assessed by potentiometric titration, in accordance with the technical protocols for pKa measurement provided by Pion Inc. and Sirius Analytical Inc. Briefly, compounds pKa were determined by pH-metric method based on potentiometric acid-base titration at 25° C. The test and reference compounds were dissolved in acidified MeOH-water (1:4) solution of NaCl (150 mM, pH 2) and slowly titrated with 10 mM NaOH MeOH-water (1:4) solution. The recorded pH of the solution as a function of NaOH volume used during the titration were used to construct the titration curve. Titration of acidified NaCl solution in absence of any compound was used for blank plotting. Buffering capacity was calculated in each point of titration curve as the ratio of the NaOH flow (constant) to the pH rise velocity. The pKa value is determined from resulting plot of buffering capacity versus pH as the maximum of buffering capacity. pH-Metric method allows to measure pKa's in range between 2 and 12. […]

PAMPA assay, GIT model = type: in vitro ADME; details: log Papp; pH 7.4, 50 μM, 4 hours, room temperature
Method: In an embodiment, PAMPA assay was carried. All steps of PAMPA assay were carried out according to pION Inc. PAMPA Explorer™ Manual. The main principle of the assay is the compound incubation in the donor chamber with aqueous buffer, which is separated from the acceptor chamber, with another buffer, by a phospholipid or hydrocarbon membrane fixed on a filter support. After the test, concentrations in the corresponding donor and acceptor chambers are measured and permeability is calculated. GIT model was simulated using GIT-0 phospholipid mix. Verapamil and quinidine (high permeability) and ranitidine (low permeability) were used as reference compounds. All compounds were tested in quadruplicates. […] After incubation, aliquots from both chambers were transferred to optic UV-Vis plates and absorbance was recorded in the range of 202-500 nm in 4 nm steps. Compounds with low UV-Vis signal were evaluated by LC-MS/MS (using a Shimadzu VP HPLC system with a reverse phase HPLC column, coupled with tandem mass spectrometer API 3000 (PE Sciex) and TurbolonSpray ion source used in positive ion mode; acquisition and analysis of the data were performed using Analyst 1.5.2 software (PE Sciex)).
The apparent permeability coefficient was calculated using the formula below. […]
The apparent permeability coefficient was calculated for each compound (log Papp).

With `COc1cccc2ccc(N3CCC(c4nc(-c5ccc(OC(F)(F)F)cc5)no4)CC3)nc12` [Compound 3, 5-(1-(8-methoxyquinolin-2-yl)piperidin-4-yl)-3-(4-(trifluoromethoxy)phenyl)-1,2,4-oxadiazole] the logD [1] was 5.34, the pKa [2] was 3.9 and the “GIT PAMPA” value (PAMPA assay, GIT model) was −4.8 log[10^−6 cm/s].
